Tested on: HeLa cells
Assay: Measurement of the cell cycle inhibition in HeLa cells
Type: cell-based
Details: HeLa B cells, 20 h incubation with compound; FACS ratio G0/G1 to G2/M vs DMSO; concentration at which 50% of cells are in cell cycle arrest
Procedure: Measurement of the Cell Cycle Inhibition in HeLa Cells—Test Procedure:
HeLa B cells are grown in DMEM (Life Technologies Cat No 21969-035) supplemented with 10% Fetal Calf Serum (FCS, Life Technologies Cat No 10270-106) in 180 cm^2 Flasks at 37° C., 92% humidity and 7% CO2.
Cells are seeded at 5×10^4 cells per well in a 24-well plate. Twenty hours later the compounds are added such that the final concentration is 1×10^−6, 3.3×10^−7, 1.1×10^−7, 3.7×10^−8, 1.2×10^−8 and 1×10^−9 M in a final volume of 500 μl. DMSO alone is added to 6 wells as a control. Cells are incubated with the compounds as above for 20 h. Then cells are observed under the microscope to check for cell death, and the 24-well plate is then centrifuged at 1200 rpm for 5 min at 20° C., acceleration position 7 and break position 5 (Eppendorf centrifuge 5804R).
The supernatant is removed and the cells lysed with 0.5 ml RNase Buffer (10 mM NaCitrate, 0.1% Nonidet NP40, 50 μg/ml RNase, 10 μg/ml Propidium iodide) per well. The plates are then incubated for at least 30 min in the dark at RT and the samples then transferred to FACS tubes. Samples are measured in a FACS machine (Beckton Dickinson) at the following settings:
Instrument Settings of the FACS Calibur:
The ratio of cells in G0/G1-phase to G2/M phase is calculated and compared to the value for the controls (DMSO) only. Results are given in table 2 as the IC50 value calculated from the concentration curve plotted against the cell cycle ratio and indicate the compound concentration at which 50% of cells are in cell cycle arrest after treatment with the compound.

| Compound | IC50 [nM] |
| --- | --- |
| CCCC(C)Nc1nc(-n2ccc(N)n2)nc(Cl)c1-c1ccc(C)cc1F (stereo not drawn) [Example 121] | 50 |
| Cc1ccc(-c2c(Cl)nc(-n3cncn3)nc2N[C@@H](C)C(C)C)c(F)c1 [Example 100] | 40 |
| CC1CCN(c2nc(-n3cccn3)nc(Cl)c2-c2c(F)cccc2Cl)CC1 [Example 66] | 37 |
| CC(C)Nc1nc(-c2cnccn2)nc(Cl)c1-c1c(F)cccc1Cl [Example 25] | 24 |
| CC(C)Nc1nc(-n2cc(Br)cn2)nc(Cl)c1-c1c(F)cccc1Cl [Example 19] | 16 |
| CC(C)[C@H](C)Nc1nc(-c2nccs2)nc(Cl)c1-c1c(F)cccc1Cl [Example 136] | 29 |
| C[C@H](Nc1nc(C(N)=NO)nc(Cl)c1-c1cc(F)ccc1Cl)C(F)(F)F [Example 220] | 36 |
| Cc1ccc(-c2c(Cl)nc(-n3cc(Cl)cn3)nc2NCC(F)(F)F)c(F)c1 [Example 150] | 50 |
| CON=C(N)c1nc(Cl)c(-c2c(F)cc(OC)cc2F)c(N2CCC(C)CC2)n1 [Example 197] | 42 |
| CC1CCN(c2nc(-c3cccnn3)nc(Cl)c2-c2c(F)cc(F)cc2F)CC1 [Example 79] | 21 |
| CCN(CC)c1nc(-c2cnccn2)nc(Cl)c1-c1c(F)cc(F)cc1F [Example 26] | 38 |
| CCC(C)Nc1nc(-n2ccnn2)nc(Cl)c1-c1c(F)cccc1Cl (stereo not drawn) [Example 107] | 39 |
| CC1CCN(c2nc(-n3ccnn3)nc(Cl)c2-c2c(F)cccc2Cl)CC1 [Example 49] | 10 |
| CCCNc1nc(-n2nc(C)cc2C(=O)OCC)nc(Cl)c1-c1ccc(C)cc1F [Example 160] | 31 |
| COc1cc(F)c(-c2c(Cl)nc(C(N)=NO)nc2N2CCC(C)CC2)c(F)c1 [Example 190] | 26 |
| Cc1nc(-n2ccnn2)nc(N2CCC(C)CC2)c1-c1c(F)cc(F)cc1F [Example 90] | 27 |
| C[C@H](Nc1nc(C(N)=NO)nc(Cl)c1-c1c(F)cccc1Cl)C(F)(F)F [Example 176] | 20 |
| Cc1nc(C)n(-c2nc(Cl)c(-c3c(F)cc(F)cc3F)c(N3CCCC3C)n2)n1 (stereo not drawn) [Example 77] | 35 |

| Compound | IC50 [nM] |
| --- | --- |
| CCC(C)Nc1nc(-n2cc(C#N)cn2)nc(Cl)c1-c1c(F)cccc1Cl (stereo not drawn) [Example 163] | 30 |
| CC1CCN(c2nc(-n3cncn3)nc(Cl)c2-c2c(F)cccc2F)CC1 [Example 116] | 42 |
| C=CCCN(C)c1nc(-n2cc(C)cn2)nc(Cl)c1-c1ccc(F)cc1Cl [Example 133] | 41 |
| CC1CCCN1c1nc(-n2cccn2)nc(Cl)c1-c1c(F)cccc1F (stereo not drawn) [Example 140] | 20 |
| CC1CCN(c2nc(C(N)=NO)nc(Cl)c2-c2c(F)cccc2F)CC1 [Example 194] | 21 |
| Cc1cnn(-c2nc(Cl)c(-c3c(F)cc(F)cc3F)c(N3CCCCC3)n2)c1 [Example 55] | 26 |
| Cc1nc(C)n(-c2nc(Cl)c(-c3c(F)cc(F)cc3F)c(N3CC=CCC3)n2)n1 [Example 59] | 43 |
| C[C@H](Nc1nc(C(N)=NO)nc(Cl)c1-c1ccc(F)cc1Cl)C(F)(F)F [Example 172] | 21 |
| CC1CCN(c2nc(-c3ccccn3)nc(Cl)c2-c2c(F)cccc2F)CC1 [Example 81] | 34 |
| CC1CCCCN1c1nc(-n2ccnn2)nc(Cl)c1-c1c(F)cccc1F (stereo not drawn) [Example 126] | 38 |
| CC(=O)NC(=O)c1nc(Cl)c(-c2c(F)cccc2F)c(N2CCC(C)CC2)n1 [Example 184] | 51 |
| C=CCCN(C)c1nc(-n2cccn2)nc(Cl)c1-c1ccc(F)cc1Cl [Example 132] | 46 |
| COc1ccc(-c2c(Cl)nc(C(C)=NO)nc2N[C@@H](C)C(C)C)c(Cl)c1 [Example 200] | 47 |
| CON=C(N)c1nc(Cl)c(-c2ccc(OC)cc2Cl)c(N[C@@H](C)C(C)C)n1 [Example 186] | 33 |
| CC1CCN(c2nc(-n3cccn3)nc(Cl)c2-c2c(F)cccc2F)CC1 [Example 115] | 23 |
| CON=C(N)c1nc(Cl)c(-c2cc(F)ccc2Cl)c(N[C@@H](C)C(C)C)n1 [Example 202] | 38 |
| Fc1cc(F)c(-c2c(Cl)nc(-n3cc(Br)cn3)nc2N2CCCCC2)c(F)c1 [Example 53] | 26 |

The remaining lines, values ahead:

| IC50 [nM] | Compound |
| --- | --- |
| 18 | CC(=NO)c1nc(Cl)c(-c2c(F)cc(F)cc2F)c(N[C@@H](C)C(F)(F)F)n1 [Example 209] |
| 39 | CCCNc1nc(-n2cccn2)nc(Cl)c1-c1ccc(C)cc1F [Example 103] |
| 4.8 | C[C@H](Nc1nc(-n2cccn2)nc(Cl)c1-c1c(F)cc(F)cc1F)C(F)(F)F [Example 1] |
| 17 | Fc1cc(F)c(-c2c(Cl)nc(-n3ccnn3)nc2N2CC=CCC2)c(F)c1 [Example 45] |
| 41 | CON=C(N)c1nc(Cl)c(-c2c(F)cc(F)cc2F)c(N[C@@H](C)C(C)C)n1 [Example 147] |
| 50 | Cc1cnn(-c2nc(Cl)c(-c3c(F)cc(F)cc3F)c(NC(C)C)n2)c1 [Example 24] |
| 25 | CC(C)Nc1nc(C(N)=NO)nc(Cl)c1-c1c(F)cc(F)cc1F [Example 144] |
| 32 | CC(C)Nc1nc(-n2ccc(C(C)C)n2)nc(Cl)c1-c1c(F)cc(F)cc1F [Example 22] |
| 32 | CCC(C)Nc1nc(C(N)=NO)nc(Cl)c1-c1c(F)cc(F)cc1F (stereo not drawn) [Example 146] |
| 42 | Cc1cccc(-c2nc(Cl)c(-c3c(F)cc(F)cc3F)c(NC(C)C)n2)n1 [Example 11] |
| 21 | CC(Nc1nc(-c2cccnn2)nc(Cl)c1-c1c(F)cc(F)cc1F)C(F)(F)F (stereo not drawn) [Example 78] |
| 13 | COc1cc(F)c(-c2c(Cl)nc(-n3cccn3)nc2N2CCC(C)CC2)c(F)c1 [Example 67] |
| 23 | CC(C)[C@H](C)Nc1nc(-n2cccn2)nc(Cl)c1-c1c(F)cc(F)cc1F [Example 138] |
| 19 | Cc1nc(-n2ccnn2)nc(N[C@@H](C)C(F)(F)F)c1-c1c(F)cc(F)cc1F [Example 157] |
| 15 | C[C@H](Nc1nc(-n2cccn2)nc(Br)c1-c1c(F)cc(F)cc1F)C(F)(F)F [Example 207] |
| 30 | COc1cc(F)c(-c2c(Cl)nc(C(N)=O)nc2N[C@@H](C)C(F)(F)F)c(F)c1 [Example 189] |
| 27 | Cc1c[nH]n(-c2nc(Cl)c(-c3c(F)cc(F)cc3F)c(N[C@@H](C)C(F)(F)F)n2)c1=O [Example 153] |

| IC50 [nM] | Compound |
| --- | --- |
| 14 | C[C@H](Nc1nc(-c2nccs2)nc(Cl)c1-c1c(F)cc(F)cc1F)C(F)(F)F [Example 129] |
| 23 | CC(C)=NOc1nc(Cl)c(-c2c(F)cc(F)cc2F)c(N[C@@H](C)C(F)(F)F)n1 [Example 204] |
| 25 | CCC(C)Nc1nc(-n2cccn2)nc(Cl)c1-c1c(C)cccc1F (stereo not drawn) [Example 109] |
| 1.5 | C[C@@H](Nc1nc(C(N)=NO)nc(Cl)c1-c1c(F)cc(F)cc1F)C(F)(F)F [Example 137] |
| 18 | C[C@H](Nc1nc(C(N)=NO)nc(Cl)c1-c1c(F)cccc1F)C(F)(F)F [Example 175] |
| 41 | C[C@H](Nc1nc(C(N)=S)nc(Cl)c1-c1c(F)cccc1Cl)C(F)(F)F [Example 169] |
| 13 | C[C@H](Nc1nc(-n2cncn2)nc(Cl)c1-c1c(F)cc(F)cc1F)C(F)(F)F [Example 8] |
| 1.8 | CON=C(N)c1nc(Cl)c(-c2c(F)cc(F)cc2F)c(N[C@H](C)C(F)(F)F)n1 [Example 130] |
| 14 | CC1CCCN1c1nc(-n2cncn2)nc(Cl)c1-c1c(F)cc(F)cc1F (stereo not drawn) [Example 75] |
| 47 | C[C@H](Nc1nc(C#N)nc(Cl)c1-c1c(F)cc(F)cc1F)C(F)(F)F [Example 10] |
| 41 | C[C@H](Nc1nc(-n2ccc(-c3ccccc3)n2)nc(Cl)c1-c1c(F)cc(F)cc1F)C(F)(F)F [Example 4] |
| 14 | Cc1ccnc(-c2nc(Cl)c(-c3c(F)cc(F)cc3F)c(N[C@@H](C)C(F)(F)F)n2)c1 [Example 14] |
| 41 | C[C@H](Nc1nc(C(N)=O)nc(Cl)c1-c1c(F)cccc1F)C(F)(F)F [Example 180] |
| 46 | CC(C)Nc1nc(-n2ccc(C(F)(F)F)n2)nc(Cl)c1-c1c(F)cc(F)cc1F [Example 16] |
| 48 | CC(C)Nc1nc(-c2ccccn2)nc(Cl)c1-c1c(F)cc(F)cc1F [Example 2] |
| 44 | CCON=C(N)c1nc(Cl)c(-c2c(F)cc(F)cc2F)c(N[C@H](C)C(F)(F)F)n1 [Example 158] |
| 50 | CC1CCCCN1c1nc(-n2cccn2)nc(Br)c1-c1c(F)cc(F)cc1F (stereo not drawn) [Example 161] |
